From patent publication US11459315B2, “Modulators of methyl modifying enzymes, compositions and uses thereof” (Constellation Pharmaceuticals, Inc., priority 2017, dated 2022) come the findings set out here.

Where two headings read alike, the source gives them in different places.

A word on the IC50: it is the concentration that gives 50% inhibition. Broadly, the EC50 is the concentration giving half of the maximal effect.

One assay deals with PRC2 containing wt EZH2 (Homo sapiens (Human), UniProt Q15910). Put plainly: EZH2 biochemical assay (IC50), 3H-SAM incorporation into biotinylated H3 peptide. The settings on record: 30 pM PRC2 containing wt EZH2, 3-5 h pre-incubation. The procedure, abridged: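 The PRC2 pentamer with wt EZH2 (30 pM) was pre-incubated for 3-5 h with 450 nM SAM plus 450 nM ³H-SAM, 2 µM H3K27me3 activating peptide and compound (0.8% DMSO) in Tris at pH 8.5. Biotinylated H3K27me1 peptide was added and the reaction ran 18-22 h at RT. Incorporated ³H was captured on streptavidin plates, and IC50 was taken from a four-parameter fit.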
Chain of PRC2 containing wt EZH2 (Q15910 whole entry): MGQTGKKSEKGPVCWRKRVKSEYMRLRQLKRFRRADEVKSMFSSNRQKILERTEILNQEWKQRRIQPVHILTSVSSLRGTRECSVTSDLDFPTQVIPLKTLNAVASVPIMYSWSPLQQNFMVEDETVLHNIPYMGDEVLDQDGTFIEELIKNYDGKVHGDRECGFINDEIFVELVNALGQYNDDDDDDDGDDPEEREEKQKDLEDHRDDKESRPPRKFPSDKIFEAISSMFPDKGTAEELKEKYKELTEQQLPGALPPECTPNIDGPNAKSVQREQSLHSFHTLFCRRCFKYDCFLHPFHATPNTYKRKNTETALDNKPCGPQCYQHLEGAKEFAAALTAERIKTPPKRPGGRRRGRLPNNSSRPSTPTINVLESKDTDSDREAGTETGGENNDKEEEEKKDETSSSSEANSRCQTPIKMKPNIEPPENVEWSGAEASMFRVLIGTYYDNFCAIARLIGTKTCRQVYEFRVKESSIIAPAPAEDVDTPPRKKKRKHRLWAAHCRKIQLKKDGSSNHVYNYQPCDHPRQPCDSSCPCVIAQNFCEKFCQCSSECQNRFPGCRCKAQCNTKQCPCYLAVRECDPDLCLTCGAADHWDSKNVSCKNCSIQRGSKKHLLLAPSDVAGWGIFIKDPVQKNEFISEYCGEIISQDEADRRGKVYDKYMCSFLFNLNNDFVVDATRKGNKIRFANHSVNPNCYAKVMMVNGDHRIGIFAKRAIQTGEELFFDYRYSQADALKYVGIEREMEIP
Chain of PRC2 containing wt EZH2 (O75530 whole entry partner): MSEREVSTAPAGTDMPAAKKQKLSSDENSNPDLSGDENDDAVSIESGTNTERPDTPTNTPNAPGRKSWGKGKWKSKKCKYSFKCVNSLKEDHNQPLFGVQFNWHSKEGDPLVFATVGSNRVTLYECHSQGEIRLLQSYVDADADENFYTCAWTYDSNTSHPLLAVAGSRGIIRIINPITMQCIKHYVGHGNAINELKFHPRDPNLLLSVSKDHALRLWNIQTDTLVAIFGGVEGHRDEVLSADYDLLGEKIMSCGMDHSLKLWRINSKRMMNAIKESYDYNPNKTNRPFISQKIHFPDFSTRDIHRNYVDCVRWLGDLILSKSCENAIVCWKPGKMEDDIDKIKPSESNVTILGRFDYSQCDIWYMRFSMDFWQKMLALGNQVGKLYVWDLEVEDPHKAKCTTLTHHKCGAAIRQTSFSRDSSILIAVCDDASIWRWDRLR
Chain of PRC2 containing wt EZH2 (Q15022 whole entry partner): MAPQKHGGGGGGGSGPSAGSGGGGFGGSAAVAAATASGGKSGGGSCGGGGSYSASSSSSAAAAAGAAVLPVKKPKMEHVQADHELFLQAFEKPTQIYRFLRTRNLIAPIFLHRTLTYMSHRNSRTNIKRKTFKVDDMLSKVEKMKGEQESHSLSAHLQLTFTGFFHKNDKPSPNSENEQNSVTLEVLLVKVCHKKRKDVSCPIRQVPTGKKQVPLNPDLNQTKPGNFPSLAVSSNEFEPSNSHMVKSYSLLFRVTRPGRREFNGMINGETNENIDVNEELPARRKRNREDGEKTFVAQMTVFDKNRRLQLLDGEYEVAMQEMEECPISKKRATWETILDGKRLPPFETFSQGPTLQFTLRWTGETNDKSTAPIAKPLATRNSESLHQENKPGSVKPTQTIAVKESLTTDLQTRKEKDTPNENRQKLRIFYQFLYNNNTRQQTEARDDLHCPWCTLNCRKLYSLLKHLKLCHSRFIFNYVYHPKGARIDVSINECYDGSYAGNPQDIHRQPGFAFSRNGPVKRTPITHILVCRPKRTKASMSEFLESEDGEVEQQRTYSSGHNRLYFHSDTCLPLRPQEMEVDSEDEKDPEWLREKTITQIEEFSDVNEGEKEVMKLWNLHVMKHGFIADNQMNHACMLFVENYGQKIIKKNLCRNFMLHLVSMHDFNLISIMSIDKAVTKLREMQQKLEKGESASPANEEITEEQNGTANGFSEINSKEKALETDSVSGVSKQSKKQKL
Chain of PRC2 containing wt EZH2 (Q09028 whole entry partner): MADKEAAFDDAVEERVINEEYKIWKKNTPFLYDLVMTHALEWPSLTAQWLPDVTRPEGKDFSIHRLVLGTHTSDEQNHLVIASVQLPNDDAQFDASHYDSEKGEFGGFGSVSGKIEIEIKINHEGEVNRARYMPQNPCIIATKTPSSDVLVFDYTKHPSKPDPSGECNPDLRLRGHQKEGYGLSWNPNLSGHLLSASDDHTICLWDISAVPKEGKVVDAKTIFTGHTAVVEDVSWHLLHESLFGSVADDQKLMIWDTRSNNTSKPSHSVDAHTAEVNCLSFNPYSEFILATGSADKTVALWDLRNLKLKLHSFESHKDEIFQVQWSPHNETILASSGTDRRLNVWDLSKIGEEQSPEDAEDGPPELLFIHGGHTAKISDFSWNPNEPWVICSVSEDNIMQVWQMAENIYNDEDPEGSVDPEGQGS
Chain of PRC2 containing wt EZH2 (Q6ZN18 whole entry partner): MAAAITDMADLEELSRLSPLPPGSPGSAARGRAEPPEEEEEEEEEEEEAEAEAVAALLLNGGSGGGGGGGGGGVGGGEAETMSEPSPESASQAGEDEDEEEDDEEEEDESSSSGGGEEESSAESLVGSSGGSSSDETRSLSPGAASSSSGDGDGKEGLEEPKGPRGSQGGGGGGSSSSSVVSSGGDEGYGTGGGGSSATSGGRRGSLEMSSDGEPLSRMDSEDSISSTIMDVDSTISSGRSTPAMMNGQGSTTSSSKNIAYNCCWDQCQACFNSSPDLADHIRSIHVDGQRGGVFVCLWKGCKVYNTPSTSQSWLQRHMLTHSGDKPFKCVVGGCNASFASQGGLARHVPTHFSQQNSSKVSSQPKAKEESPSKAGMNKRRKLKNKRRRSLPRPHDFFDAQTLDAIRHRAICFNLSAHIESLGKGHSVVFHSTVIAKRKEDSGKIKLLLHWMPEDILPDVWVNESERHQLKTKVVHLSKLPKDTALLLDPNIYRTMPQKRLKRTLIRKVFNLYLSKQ

The test system of assay [1] is H3K27me3 mark in HeLa cells (EZH2). In words: H3K27me3 Alpha Hela Assay (AlphaLISA). In kind it is cell-based. The settings on record: Homo sapiens, HeLa, 72 h, HeLa cells, 72 hrs; read-out: EZH2 Cell H3K27me3 Alpha HeLa (EC50 K27me3). The procedure, abridged: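 HeLa cells (1,000/well) treated with ten 3-fold compound doses for 72 h at 37 °C; lysates extracted and H3K27me3 detected by AlphaLISA with anti-K27me3 acceptor beads, biotinylated anti-H3 (3 nM) and streptavidin donor beads. EC50 from DMSO-normalized dose-response curves; duplicate plate assessed viability.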
A general note: In Alpha technology, singlet oxygen from a donor bead excites a nearby acceptor bead.

Consider `CSc1cc(C)[nH]c(=O)c1CNC(=O)c1c(C)n([C@H](C)CO)c2ccccc12` [Example 31, (R)-1-(1-hydroxypropan-2-yl)-2-methyl-N-((6-methyl-4-(methylthio)-2-oxo-1,2-dihydropyridin-3-yl)methyl)-1H-indole-3-carboxamide], for which the IC50 at PRC2 containing wt EZH2 (read-out: EZH2 (IC50)) was > 5 nM. Besides, the concentration for a half-maximal effect (EC50) in assay [1] was > 100 nM.
As for `COC[C@@H](C)n1c(C)c(C(=O)NCc2c(SC)cc(C)[nH]c2=O)c2ccccc21` [Example 32, (R)-1-(1-methoxypropan-2-yl)-2-methyl-N-((6-methyl-4-(methylthio)-2-oxo-1,2-dihydropyridin-3-yl)methyl)-1H-indole-3-carboxamide], at PRC2 containing wt EZH2 (EZH2 (IC50)), the IC50 is < 0.5 nM. In assay [1], the concentration giving a half-maximal response (EC50) is 10 to 100 nM.
In the same order, the values of `CCOC[C@@H](C)n1c(C)c(C(=O)NCc2c(SC)cc(C)[nH]c2=O)c2ccccc21` [Example 33, (R)-1-(1-ethoxypropan-2-yl)-2-methyl-N-((6-methyl-4-(methylthio)-2-oxo-1,2-dihydropyridin-3-yl)methyl)-1H-indole-3-carboxamide] are 0.5 to 5 nM and 10 to 100 nM.
As for `CSc1cc(C)[nH]c(=O)c1CNC(=O)c1c(C)n([C@@H](C)c2cnc(C)nc2)c2ccccc12` [Example 34, (S)-2-methyl-N-((6-methyl-4-(methylthio)-2-oxo-1,2-dihydropyridin-3-yl)methyl)-1-(1-(2-methylpyrimidin-5-yl)ethyl)-1H-indole-3-carboxamide], at PRC2 containing wt EZH2 (read-out: EZH2 (IC50)), the IC50 was > 5 nM. For the same molecule, the concentration for a half-maximal effect (EC50) in assay [1] was > 100 nM.
In the same order, the values of `CSc1cc(C)[nH]c(=O)c1CNC(=O)c1c(C)n([C@H](C)c2cnc(C)nc2)c2ccccc12` [Example 35, (R)-2-methyl-N-((6-methyl-4-(methylthio)-2-oxo-1,2-dihydropyridin-3-yl)methyl)-1-(1-(2-methylpyrimidin-5-yl)ethyl)-1H-indole-3-carboxamide] are > 5 nM and > 100 nM.
With `CSc1cc(C)[nH]c(=O)c1CNC(=O)c1c(C)n([C@H](C)[C@H]2CCNC[C@@H]2F)c2ccccc12` [Example 37, 1-((R)-1-((3R,4R)-3-fluoropiperidin-4-yl)ethyl)-2-methyl-N-((6-methyl-4-(methylthio)-2-oxo-1,2-dihydropyridin-3-yl)methyl)-1H-indole-3-carboxamide], the concentration for half-maximal inhibition (IC50) at PRC2 containing wt EZH2 (EZH2 (IC50)) is < 0.5 nM. Besides, in assay [1], the concentration giving a half-maximal response (EC50) lay in the range of 10 to 100 nM.
Turning to `CSc1cc(C)[nH]c(=O)c1CNC(=O)c1c(C)n([C@H](C)C2CCNC[C@H]2F)c2ccccc12` (stereo partly drawn) [Example 38, 1-((1R)-1-((3S)-3-fluoropiperidin-4-yl)ethyl)-2-methyl-N-((6-methyl-4-(methylthio)-2-oxo-1,2-dihydropyridin-3-yl)methyl)-1H-indole-3-carboxamide], the IC50 on PRC2 containing wt EZH2 (EZH2 (IC50)) is < 0.5 nM. Moreover, the concentration giving a half-maximal response (EC50) in assay [1] was 10 to 100 nM.
In the same order, the values of `CSc1cc(C)[nH]c(=O)c1CNC(=O)c1c(C)n([C@H](C)C2CCN(C#N)CC2)c2ccccc12` [Example 39, (R)-1-(1-(1-cyanopiperidin-4-yl)ethyl)-2-methyl-N-((6-methyl-4-(methylthio)-2-oxo-1,2-dihydropyridin-3-yl)methyl)-1H-indole-3-carboxamide] are < 0.5 nM and 10 to 100 nM.
In the same order, the values of `CSc1cc(C)[nH]c(=O)c1CNC(=O)c1c(C)n([C@H](C)C2CCC(O)CC2)c2nc(C)ccc12` (stereo partly drawn) [Example 40, 1-((1R)-1-(4-hydroxycyclohexyl)ethyl)-2,6-dimethyl-N-((6-methyl-4-(methylthio)-2-oxo-1,2-dihydropyridin-3-yl)methyl)-1H-pyrrolo[2,3-b]pyridine-3-carboxamide] are 0.5 to 5 nM and > 100 nM.
On to `CSc1cc(C)[nH]c(=O)c1CNC(=O)c1c(C)n([C@H](C)[C@H]2CCN(C)C[C@@H]2F)c2ccccc12` [Example 42, 1-((R)-1-((3R,4R)-3-fluoro-1-methylpiperidin-4-yl)ethyl)-2-methyl-N-((6-methyl-4-(methylthio)-2-oxo-1,2-dihydropyridin-3-yl)methyl)-1H-indole-3-carboxamide], for which the IC50 at PRC2 containing wt EZH2 (EZH2 (IC50)) is < 0.5 nM. Besides, the concentration for a half-maximal effect (EC50) in assay [1] was < 10 nM.
Taken in the same sequence, the figures for `CSc1cc(C)[nH]c(=O)c1CNC(=O)c1c(C)n([C@H](C)C2CCN(C)C[C@H]2F)c2ccccc12` (stereo partly drawn) [Example 43, 1-((1R)-1-((3S)-3-fluoro-1-methylpiperidin-4-yl)ethyl)-2-methyl-N-((6-methyl-4-(methylthio)-2-oxo-1,2-dihydropyridin-3-yl)methyl)-1H-indole-3-carboxamide] were < 0.5 nM and 10 to 100 nM.
On to `CSc1cc(C)[nH]c(=O)c1CNC(=O)c1c(C)n([C@H](C)C2CCC(F)(F)CC2)c2ccccc12` [Example 45, (R)-1-(1-(4,4-difluorocyclohexyl)ethyl)-2-methyl-N-((6-methyl-4-(methylthio)-2-oxo-1,2-dihydropyridin-3-yl)methyl)-1H-indole-3-carboxamide], for which, on PRC2 containing wt EZH2 (EZH2 (IC50)), the IC50 was < 0.5 nM. Besides, the EC50 in assay [1] is < 10 nM.
In the same order, the values of `CSc1cc(C)[nH]c(=O)c1CNC(=O)c1c(C)n([C@H](C)c2ccc(N(C)C)cc2)c2ccccc12` [Example 46, (R)-1-(1-(4-(dimethylamino)phenyl)ethyl)-2-methyl-N-((6-methyl-4-(methylthio)-2-oxo-1,2-dihydropyridin-3-yl)methyl)-1H-indole-3-carboxamide] are < 0.5 nM and 10 to 100 nM.
Taken in the same sequence, the figures for `CSc1cc(C)[nH]c(=O)c1CNC(=O)c1c(C)n([C@@H](C)c2ccc(N(C)C)cc2)c2ccccc12` [Example 47, (S)-1-(1-(4-(dimethylamino)phenyl)ethyl)-2-methyl-N-((6-methyl-4-(methylthio)-2-oxo-1,2-dihydropyridin-3-yl)methyl)-1H-indole-3-carboxamide] were 0.5 to 5 nM and > 100 nM.
In the case of `CSc1cc(C)[nH]c(=O)c1CNC(=O)c1c(C)n([C@H](C)C2CCN(C3CC3)CC2)c2ccccc12` [Example 48, (R)-1-(1-(1-cyclopropylpiperidin-4-yl)ethyl)-2-methyl-N-((6-methyl-4-(methylthio)-2-oxo-1,2-dihydropyridin-3-yl)methyl)-1H-indole-3-carboxamide], the IC50 at PRC2 containing wt EZH2 (EZH2 (IC50)) is < 0.5 nM. For the same molecule, the EC50 in assay [1] is < 10 nM.
As to `CSc1cc(C)[nH]c(=O)c1CNC(=O)c1c(C)n([C@H](C)C2CC(NC3COC3)C2)c2ccccc12` (stereo partly drawn) [Example 49, 2-methyl-N-((6-methyl-4-(methylthio)-2-oxo-1,2-dihydropyridin-3-yl)methyl)-1-((R)-1-(3-(oxetan-3-ylamino)cyclobutyl)ethyl)-1H-indole-3-carboxamide], the IC50 on PRC2 containing wt EZH2 (read-out: EZH2 (IC50)) was 0.5 to 5 nM. Moreover, the EC50 in assay [1] was > 100 nM.
Turning to `CSc1cc(C)[nH]c(=O)c1CNC(=O)c1c(C)n([C@H](C)C2CCN(C3CC3)CC2)c2ncncc12` [Example 50, (R)-7-(1-(1-cyclopropylpiperidin-4-yl)ethyl)-6-methyl-N-((6-methyl-4-(methylthio)-2-oxo-1,2-dihydropyridin-3-yl)methyl)-7H-pyrrolo[2,3-d]pyrimidine-5-carboxamide], on PRC2 containing wt EZH2 (EZH2 (IC50)), the 50% inhibitory concentration (IC50) is < 0.5 nM. For the same molecule, the EC50 in assay [1] was < 10 nM.
Take `CSc1cc(C)[nH]c(=O)c1CNC(=O)c1c(C)n([C@H](C)C2CCN(CCO)CC2)c2ccccc12` [Example 52, (R)-1-(1-(1-(2-hydroxyethyl)piperidin-4-yl)ethyl)-2-methyl-N-((6-methyl-4-(methylthio)-2-oxo-1,2-dihydropyridin-3-yl)methyl)-1H-indole-3-carboxamide]: at PRC2 containing wt EZH2 (EZH2 (IC50)), the IC50 is < 0.5 nM. In addition, the EC50 in assay [1] is > 100 nM.
